Measured values as given in the supplement of paper PMC4932681.

What was measured:
T-47D [1] = assay: relative IC50 (midpoint of fitted logistic curve, plateau may be below 50% inhibition; CellTiter-Glo viability); higher = less potent; conditions: 72 h
Description: (§1)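 FIMM FO2B library drugs were plated at 5 concentrations spanning a 10,000-fold range in 384-well plates. Cells were incubated for 72 h at 37 °C and viability was read by CellTiter-Glo, normalised to DMSO (0% inhibition) and 100 µM benzethonium chloride (100% inhibition). IC50 values come from logistic dose-response fits (Breeze pipeline). Tamoxifen-resistant lines and the 'in 1µM tamoxifen' parental arms were tested in medium with 1 µM 4-OH-tamoxifen.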

MCF-7 [2] = assay: as above; conditions: 72 h
Description: as §1

ZR-75-1 Tam2 [3] = assay: as above; conditions: 4-OH-tamoxifen in medium 1 µM; 72 h
Description: as §1

BT-474 Tam1 [4] = assay: as above; conditions: 4-OH-tamoxifen in medium 1 µM; 72 h
Description: as §1

MCF-7 Tam1 [5] = assay: as above; conditions: 4-OH-tamoxifen in medium 1 µM; 72 h
Description: as §1

ZR-75-1 Tam1 [6] = assay: as above; conditions: 4-OH-tamoxifen in medium 1 µM; 72 h
Description: as §1

ZR-75-1 [7] = assay: as above; conditions: 72 h
Description: as §1

BT-474 [8] = assay: as above; conditions: 72 h
Description: as §1

T-47D Tam1 [9] = assay: as above; conditions: 4-OH-tamoxifen in medium 1 µM; 72 h
Description: as §1

T-47D [10] = assay: drug sensitivity score (DSS) (DSS (dimensionless)); higher = more sensitive; extreme values may be limits of the assay; conditions: 72 h
Description: (§2)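 FIMM FO2B library drugs were tested at 5 concentrations (10,000-fold range) for 72 h, with CellTiter-Glo viability normalised to DMSO and benzethonium chloride controls. The Drug Sensitivity Score (DSS) is computed from the fitted logistic dose-response curve (area-based; 0 = inactive). Resistant lines and the 'in 1µM tamoxifen' arms were tested in 1 µM 4-OH-tamoxifen.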

MCF-7 [11] = assay: as above; conditions: 72 h
Description: as §2

ZR-75-1 Tam2 [12] = assay: as above; conditions: 4-OH-tamoxifen in medium 1 µM; 72 h
Description: as §2

BT-474 Tam1 [13] = assay: as above; conditions: 4-OH-tamoxifen in medium 1 µM; 72 h
Description: as §2

BT-474 Tam2 [14] = assay: as above; conditions: 4-OH-tamoxifen in medium 1 µM; 72 h
Description: as §2

MCF-7 Tam1 [15] = assay: as above; conditions: 4-OH-tamoxifen in medium 1 µM; 72 h
Description: as §2

ZR-75-1 Tam1 [16] = assay: as above; conditions: 4-OH-tamoxifen in medium 1 µM; 72 h
Description: as §2

ZR-75-1 [17] = assay: as above; conditions: 72 h
Description: as §2

T-47D Tam2 = assay: as above; conditions: 4-OH-tamoxifen in medium 1 µM; 72 h
Description: as §2

BT-474 [18] = assay: as above; conditions: 72 h
Description: as §2

T-47D Tam1 [19] = assay: as above; conditions: 4-OH-tamoxifen in medium 1 µM; 72 h
Description: as §2

BT-474 Tam2 [20] = assay: relative IC50 (midpoint of fitted logistic curve, plateau may be below 50% inhibition; CellTiter-Glo viability); higher = less potent; conditions: 4-OH-tamoxifen in medium 1 µM; 72 h
Description: as §1

Structure (SMILES) | relative IC50 (T-47D [1]; 4-OH-tamoxifen in medium 1 µM) | relative IC50 (MCF-7 [2]; 4-OH-tamoxifen in medium 0 µM) | relative IC50 (ZR-75-1 Tam2 [3]) | relative IC50 (BT-474 Tam1 [4]) | relative IC50 (MCF-7 Tam1 [5]) | relative IC50 (ZR-75-1 Tam1 [6]) | relative IC50 (ZR-75-1 [7]; 4-OH-tamoxifen in medium 0 µM) | relative IC50 (BT-474 [8]; 4-OH-tamoxifen in medium 0 µM) | relative IC50 (T-47D Tam1 [9]) | drug sensitivity score (T-47D [10]; 4-OH-tamoxifen in medium 0 µM) | drug sensitivity score (T-47D [10]; 4-OH-tamoxifen in medium 1 µM) | drug sensitivity score (MCF-7 [11]; 4-OH-tamoxifen in medium 0 µM) | drug sensitivity score (MCF-7 [11]; 4-OH-tamoxifen in medium 1 µM) | drug sensitivity score (ZR-75-1 Tam2 [12]) | drug sensitivity score (BT-474 Tam1 [13]) | drug sensitivity score (BT-474 Tam2 [14]) | drug sensitivity score (MCF-7 Tam1 [15]) | drug sensitivity score (ZR-75-1 Tam1 [16]) | drug sensitivity score (ZR-75-1 [17]; 4-OH-tamoxifen in medium 0 µM) | drug sensitivity score (ZR-75-1 [17]; 4-OH-tamoxifen in medium 1 µM) | drug sensitivity score (T-47D Tam2) | drug sensitivity score (BT-474 [18]; 4-OH-tamoxifen in medium 0 µM) | drug sensitivity score (BT-474 [18]; 4-OH-tamoxifen in medium 1 µM) | drug sensitivity score (T-47D Tam1 [19]) | relative IC50 (T-47D [1]; 4-OH-tamoxifen in medium 0 µM) | relative IC50 (MCF-7 [2]; 4-OH-tamoxifen in medium 1 µM) | relative IC50 (BT-474 Tam2 [20]) | relative IC50 (ZR-75-1 [7]; 4-OH-tamoxifen in medium 1 µM) | relative IC50 (BT-474 [8]; 4-OH-tamoxifen in medium 1 µM)
Cc1ccc(NC(=O)c2ccc(CN3CCN(C)CC3)cc2)cc1Nc1nccc(-c2cccnc2)n1 [Imatinib] | > 10 µM | > 10 µM | > 10 µM | 4.03 µM | > 10 µM | > 10 µM | > 10 µM | > 10 µM | > 10 µM | 0 | 0 | 0 | 0 | 0 | 1.97 | 1.21 | 0 | 0 | 0 | 0.933 | 0.454 | 0 | 0.471 | 0 | – | – | – | – | –
COC(=O)c1ccc2c(c1)NC(=O)/C2=C(\Nc1ccc(N(C)C(=O)CN2CCN(C)CC2)cc1)c1ccccc1 [Nintedanib (BIBF 1120)] | > 10 µM | – | > 10 µM | 0.155 µM | > 10 µM | – | > 10 µM | > 10 µM | > 10 µM | 0 | 0 | 0.34 | 0 | 0 | 7.37 | 0 | 0 | 0 | 0 | 0 | 0.209 | 0 | 3.83 | 0 | > 10 µM | > 10 µM | > 10 µM | > 10 µM | –
NC(=O)c1cccc2cn(-c3ccc([C@@H]4CCCNC4)cc3)nc12 [MK-4827] | – | – | > 10 µM | 3.06 µM | > 10 µM | > 10 µM | – | > 10 µM | > 10 µM | 0.34 | 1.04 | 0.385 | 1.11 | 0 | 2.21 | 0.615 | 0 | 0 | 0.0039 | 0 | 0.764 | 0 | 0 | 0 | – | – | – | > 10 µM | > 10 µM
Cn1c(=O)n(-c2ccc(C(C)(C)C#N)cc2)c2c3cc(-c4cnc5ccccc5c4)ccc3ncc21 [Dactolisib (NVP-BEZ235)] | 0.117 µM | 0.00668 µM | 0.0139 µM | 0.0863 µM | 0.0527 µM | 0.00716 µM | 0.0093 µM | – | 0.00744 µM | 10.4 | 7.65 | 18.3 | 11.4 | 12.6 | 4.98 | 4.69 | 3.91 | 12.4 | 12.9 | 10.4 | 4.46 | 6.54 | 5.55 | 13.4 | 0.0278 µM | 0.00894 µM | – | 0.00917 µM | 0.0609 µM
CO[C@H]1C[C@@H]2CC[C@@H](C)[C@@](O)(O2)C(=O)C(=O)N2CCCC[C@H]2C(=O)O[C@H]([C@H](C)C[C@@H]2CC[C@@H](O)[C@H](OC)C2)CC(=O)[C@H](C)/C=C(\C)[C@@H](O)[C@@H](OC)C(=O)[C@H](C)C[C@H](C)/C=C/C=C/C=C/1C [Sirolimus (Rapamycin)] | – | 0.00479 µM | 0.002 µM | > 1 µM | > 1 µM | 0.00448 µM | 0.00184 µM | – | 0.00524 µM | 10.6 | 0.392 | 12.7 | 11.1 | 12.4 | 0 | 1.85 | 0 | 8.75 | 12.7 | 9.39 | 3.53 | 5.15 | 1.96 | 8.59 | 0.00107 µM | 0.00486 µM | – | 0.00235 µM | –
NC(=O)c1ccc(I)c([N+](=O)[O-])c1 | > 10 µM | > 10 µM | > 10 µM | > 10 µM | > 10 µM | – | > 10 µM | > 10 µM | > 10 µM | 0 | 0 | 0 | 0 | 0 | 0 | 0 | 0 | 0 | 0 | 0 | 0.229 | 0 | 0 | 0 | > 10 µM | > 10 µM | > 10 µM | > 10 µM | > 10 µM
Nc1ccn([C@@H]2O[C@H](CO)[C@@H](O)C2(F)F)c(=O)n1 [Gemcitabine] | > 1 µM | – | – | > 1 µM | > 1 µM | > 1 µM | – | > 1 µM | > 1 µM | 4.36 | 0 | 5.69 | 0.509 | 0.493 | 0 | 0 | 0 | 0 | 6.28 | 0.865 | 0.815 | 0 | 0 | 0 | 0.0604 µM | – | > 1 µM | – | > 1 µM
COc1cc2nccc(Oc3ccc(NC(=O)C4(C(=O)Nc5ccc(F)cc5)CC4)cc3)c2cc1OC [Cabozantinib (XL184)] | > 1 µM | > 1 µM | > 1 µM | – | > 1 µM | – | > 1 µM | > 1 µM | > 1 µM | 0 | 0 | 0 | 0.282 | 0 | 0.113 | 0 | 0 | 0.0383 | 0 | 0 | 0.0065 | 0 | 0.138 | 0 | > 1 µM | – | > 1 µM | > 1 µM | –
